From patent publication US7790724B2, “c-fms kinase inhibitors” (Janssen Pharmaceutica N.V., priority 2003, dated 2010)
Where a name gives a salt, the structure may show the parent alone. Read-outs that look alike come from different tables or passages of the source.

Biological target: T1, c-fms (Homo sapiens, UniProt P07333)
T1 construct: 3DP
Assay: autophosphorylation, fluorescence polarization competition immunoassay for c-fms inhibition
Format: biochemical
Settings: for inhibition at 2 µM: @ 2 μM compound (values marked *); for inhibition at 10 µM: read-out: % Inhibition (at 10 μM)
Procedure: The assay was performed in black 96-well microplates (LJL BioSystems). The assay buffer used was 100 mM HEPES, pH 7.5, 1 mM DTT, 0.01% (v/v) Tween-20. Compounds were diluted in assay buffer containing 4% DMSO just prior to the assay. […] The kinase reaction was initiated by adding 2 μL of 5 mM ATP (Sigma) in assay buffer. The final concentrations in the assay were 10 nM c-fms, 1 mM ATP, 5 mM MgCl2, 2% DMSO. Control reactions were ran in each plate: in positive and negative control wells, assay buffer (made 4% in DMSO) was substituted for the compound; in addition, positive control wells received 1.2 μL of 50 mM EDTA.
The plates were incubated at room temperature for 45 min. At the end of the incubation, the reaction was quenched with 1.2 μL of 50 mM EDTA (EDTA was not added to the positive control wells at this point; see above). Following a 5-min incubation, each well received 10 μL of a 1:1:3 mixture of anti-phosphotyrosine antibody, 10×, PTK green tracer, 10× (vortexed), FP dilution buffer, respectively (all from PanVera, cat. # P2837). The plate was covered, incubated for 30 min at room temperature and the fluorescence polarization was read on the Analyst. […] The reported IC50 values are averages of three independent measurements.

[1] = determined in a similar fashion for Examples 11-68, read-out: IC-50 (activites below 1 μM)
[2] = 10 nM c-fms, 1 mM ATP, averages of three independent measurements, read-out: IC50

T1 sequence (P07333 20-972): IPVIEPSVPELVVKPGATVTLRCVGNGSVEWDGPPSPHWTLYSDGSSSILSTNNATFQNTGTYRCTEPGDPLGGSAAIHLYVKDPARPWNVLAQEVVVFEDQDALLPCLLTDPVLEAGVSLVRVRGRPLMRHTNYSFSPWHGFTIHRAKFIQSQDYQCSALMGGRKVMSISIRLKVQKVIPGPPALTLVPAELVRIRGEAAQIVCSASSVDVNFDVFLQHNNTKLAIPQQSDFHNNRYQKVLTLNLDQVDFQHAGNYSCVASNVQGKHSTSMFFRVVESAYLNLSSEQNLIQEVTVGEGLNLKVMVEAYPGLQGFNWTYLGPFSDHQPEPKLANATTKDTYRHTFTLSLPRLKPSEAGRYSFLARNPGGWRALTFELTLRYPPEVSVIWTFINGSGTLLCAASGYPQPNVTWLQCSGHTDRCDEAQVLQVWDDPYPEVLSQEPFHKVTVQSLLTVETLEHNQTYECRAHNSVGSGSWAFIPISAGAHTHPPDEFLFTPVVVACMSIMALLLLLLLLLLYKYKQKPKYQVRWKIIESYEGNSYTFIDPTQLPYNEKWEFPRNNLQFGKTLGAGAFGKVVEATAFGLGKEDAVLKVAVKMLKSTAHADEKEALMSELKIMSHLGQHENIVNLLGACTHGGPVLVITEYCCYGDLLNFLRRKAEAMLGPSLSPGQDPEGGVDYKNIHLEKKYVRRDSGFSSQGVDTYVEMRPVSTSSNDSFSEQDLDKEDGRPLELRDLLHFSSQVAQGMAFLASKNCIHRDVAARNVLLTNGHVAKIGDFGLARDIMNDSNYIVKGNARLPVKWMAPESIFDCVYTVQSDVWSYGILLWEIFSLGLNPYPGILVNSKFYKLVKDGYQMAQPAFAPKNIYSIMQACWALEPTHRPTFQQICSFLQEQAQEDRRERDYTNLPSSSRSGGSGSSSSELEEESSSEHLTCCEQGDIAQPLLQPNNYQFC

SMILES	IC50 [2]	inhibition at 10 µM (at 10 μM compound)	further results
CC1CCN(c2ccccc2NC(=O)c2nc(C#N)c[nH]2)CC1 [Example 41, 4-Cyano-1H-imidazole-2-carboxylic acid [2-(4-methyl-piperidin-1-yl)-phenyl]-amide trifluoroacetic acid salt]			IC50 [1]: < 1000 nM
N#Cc1ccc(C(=O)Nc2cc(CNCC(O)CO)ccc2N2CCCCC2)o1 (stereo not drawn)	< 1000 nM		inhibition at 2 µM: 93%
Cc1cccc(N2CCCCC2)c1NC(=O)c1ccc(C#N)o1	> 1000 nM	50%	
CC1CCN(c2ccccc2NC(=O)c2ccc(C#N)o2)CC1	< 1000 nM	97%	
O=C(O)c1ccc(C(=O)Nc2ccccc2N2CCCCC2)o1	> 1000 nM	24%	
O=C(Nc1ccccc1N1CCC(O)CC1)c1ccc([N+](=O)[O-])o1	< 1000 nM	98%	
N#Cc1ccc(C(=O)Nc2c(F)cccc2N2CCCCC2)o1	> 1000 nM	61%	
O=C(Nc1cc(CO)ccc1N1CCCCC1)c1ccc([N+](=O)[O-])o1	< 1000 nM	100%	
O=C(Nc1ccccc1N1CCCCC1)c1n[nH]cc1[N+](=O)[O-]	> 1000 nM	61%	
COc1ccc(N2CCCCC2)c(NC(=O)c2ccc(C#N)o2)c1	< 1000 nM		inhibition at 2 µM: 99%
CC(C)(O)c1ccc(NC(=O)c2nc(C#N)c[nH]2)c(C2=CCCCC2)c1 [Example 12, 4-Cyano-1H-imidazole-2-carboxylic acid [2-cyclohex-1-enyl-4-(1-hydroxy-1-methyl-ethyl)-phenyl]-amide]			IC50 [1]: < 1000 nM
O=C(Nc1ccccc1N1CCCCC1)c1cc([N+](=O)[O-])ccn1	> 1000 nM	90%	
O=C(Nc1ccccc1N1CCC(CCO)CC1)c1ccc([N+](=O)[O-])o1	< 1000 nM	100%	
C[C@@H]1CN(c2ccccc2NC(=O)c2ccc([N+](=O)[O-])o2)C[C@H](C)O1	> 1000 nM	72%	
CC1(C)CCN(c2ncccc2NC(=O)c2nc(C#N)c[nH]2)CC1 [Example 63, 4-Cyano-1H-imidazole-2-carboxylic acid (4,4-dimethyl-3,4,5,6-tetrahydro-2H-[1,2′]bipyridinyl-3′-yl)-amide trifluoroacetic acid salt]			IC50 [1]: < 1000 nM
O=C(Nc1ccccc1N1CCCCC1)c1cc([N+](=O)[O-])n[nH]1	> 1000 nM		inhibition at 2 µM: 50%
O=C(Nc1ccccc1N1CCC(CO)CC1)c1ccc([N+](=O)[O-])o1	< 1000 nM	100%	
CC1(C)CC=C(c2ncccc2NC(=O)c2nc(C#N)c[nH]2)CC1 [Example 42, 4-Cyano-1H-imidazole-2-carboxylic acid [2-(4,4-dimethyl-cyclohex-1-enyl)-pyridin-3-yl]-amide trifluoroacetic acid salt]			IC50 [1]: < 1000 nM
O=C(Nc1ccccc1N1CCCCCC1)c1ccc([N+](=O)[O-])o1	< 1000 nM	100%	
CCOc1ccccc1NC(=O)c1ccc([N+](=O)[O-])o1	> 1000 nM	56%	
O=C(Nc1ccccc1N1CCOCC1)c1ccc([N+](=O)[O-])o1	> 1000 nM	89%	
N#Cc1ccc(C(=O)Nc2ccccc2N2CCC(CO)CC2)o1	< 1000 nM		inhibition at 2 µM: 93%

SMILES	IC50 [2]	inhibition at 10 µM (at 10 μM compound)	further results
O=Cc1ccc(C(=O)Nc2ccccc2N2CCCCC2)o1	> 1000 nM	86%	
O=C(Nc1ccccc1N1CCCCC1)c1ccc(Cl)o1	> 1000 nM	88%	
C[C@H]1CN(c2ccccc2NC(=O)c2ccc([N+](=O)[O-])o2)C[C@H](C)O1	> 1000 nM	80%	
O=C(Nc1cc(F)ccc1N1CCCCC1)c1ccc([N+](=O)[O-])o1	< 1000 nM		
CC1CCN(c2ccccc2NC(=O)c2ccc([N+](=O)[O-])o2)CC1			IC50: < 1000 nM; inhibition at 10 µM: 92%
COC(C)(C)c1ccc(NC(=O)c2nc(C#N)c[nH]2)c(C2=CCCCC2)c1 [Example 13, 4-Cyano-1H-imidazole-2-carboxylic acid [2-cyclohex-1-enyl-4-(1-methoxy-1-methyl-ethyl)-phenyl]-amide]			IC50 [1]: < 1000 nM
CS(=O)(=O)NCc1ccc(N2CCCCC2)c(NC(=O)c2ccc(C#N)o2)c1	< 1000 nM		inhibition at 2 µM: 100%
N#Cc1ccc(C(=O)Nc2ccccc2N2CCC(CCO)CC2)o1	< 1000 nM		inhibition at 2 µM: 97%
N#Cc1ccc(N2CCCCC2)c(NC(=O)c2ccc(C#N)o2)c1	< 1000 nM		inhibition at 2 µM: 95%
CC(C)(N)c1ccc(NC(=O)c2nc(C#N)c[nH]2)c(C2=CCCCC2)c1 [Example 14, 4-Cyano-1H-imidazole-2-carboxylic acid [4-(1-amino-1-methyl-ethyl)-2-cyclohex-1-enyl-phenyl]-amide, acetic acid salt]			IC50 [1]: < 1000 nM
O=C(Nc1ccccc1N1CCCCC1)c1cc([N+](=O)[O-])c[nH]1	< 1000 nM	99%	
N#Cc1ccc(C(=O)Nc2ccc(F)cc2N2CCCCC2)o1	< 1000 nM		inhibition at 2 µM: 94%
O=C(Nc1ccccc1N1CCCCC1)c1cccc([N+](=O)[O-])c1	> 1000 nM	77%	
N#Cc1ccc(C(=O)Nc2ccccc2N2CCC(O)CC2)o1	> 1000 nM		inhibition at 2 µM: 90%
CC1CCCN(c2ccccc2NC(=O)c2ccc([N+](=O)[O-])o2)C1 (stereo not drawn)	< 1000 nM	96%	
O=C(Nc1ccccc1N1CCCCC1)c1ccc(Br)o1	> 1000 nM	68%	
N#Cc1ccc(C(=O)Nc2ccc(Cl)cc2N2CCCCC2)o1	< 1000 nM		inhibition at 2 µM: 90%
CC1(C)CC=C(c2ccccc2NC(=O)c2nc(C#N)c[nH]2)CC1 [Example 67, 4-Cyano-1H-imidazole-2-carboxylic acid [2-(4,4-dimethyl-cyclohex-1-enyl)-phenyl]-amide]			IC50 [1]: < 1000 nM
CC(=O)c1ccc(C(=O)Nc2ccccc2N2CCCCC2)s1	> 1000 nM	60%	
N#Cc1ccc(C(=O)Nc2ccccc2N2CCCCC2)o1	< 1000 nM	99%	
CC(C)c1ccc(NC(=O)c2nc(C#N)c[nH]2)c(C2=CCCCC2)c1 [Example 22, 4-Cyano-1H-imidazole-2-carboxylic acid (2-cyclohex-1-enyl-4-isopropyl-phenyl)-amide]			IC50 [1]: < 1000 nM
O=C(Nc1ccccc1N1CCCCC1)c1ccc([N+](=O)[O-])o1		91%	
